Source: patent US8017578B2, “Orally active peptides that prevent cell damage and death” (The United States of America as represented by the …, priority 1999, dated 2011)
Entries after “also recorded” stand apart in the source; their conditions may differ. Like-named read-outs stand apart in the source and are kept apart here. Square brackets hold non-standard residues; d marks the D form. Ends that are not written are not given here.

Tests used:
mice = test: fetal alcohol syndrome (FAS) model in pregnant mice; settings: for fetal demise rate: pretreatment 30 minutes prior to alcohol on E8, 20 μg (each), injection, assessed E18, vs alcohol group
[1] = test system: dissociated cerebral cortical cultures (neurons); type: cell-based, rat; settings: 5 days
[2] = test system: choline acetyl transferase activity; settings: ApoE-deficient mice with reduced choline acetyl transferase activity; cited from earlier work
AF64A-treated rats = test: AF64A cholinotoxicity in adult rats, Morris water maze; type: in vivo; settings: for Morris water maze, summation of the two daily tests, vs AF64A / Morris water maze, summation of the two daily tests: 10 microgram per rat per day under the tongue
Source text: FIGS. 14A and B illustrate the effect of oral administration of D-NAPVSIPQ+D-SALLRSIPA on learning and memory in rats treated with the cholinotoxin AF-64A. Short-term memory processes were examined by performance in the Morris water maze, measuring the time required to find the hidden platform in the second of two daily trials. The platform location and the starting point in which the animal was placed in the water were held constant within each pair of daily trials, but both locations were changed every day. For the first test, both the platform and the animal were situated in a new location with regard to the pool (with the pool being immobile). The experiment was performed as follows: the animal was positioned on the platform for 0.5 minute, then placed in the water. […] After 0.5 minute on the platform, the animal was placed back in the water (in the previous position) for an additional second test (FIG. 14B) and search for the hidden platform (retained in the previous position). The time required to reach the platform in the second trial was recorded, indicative of short-term (working) memory. All measurements were performed using the computerized video-assisted HVS water maze system (HVS Image Ltd. Hampton, UK). Animals were tested for four days to eliminate random memory defective animals. The designated n is the number of animals tested. Each point is the mean+the standard error.
Rats (male Wistar, 300-350 g) were subjected to two daily tests in a water maze, including a hidden platform (Morris, J. Neurosci. Methods 11:47-60 (1984) and Gordon et al., Neurosci. Lett. 199:1-4 (1995); Gozes et al., J. Neurobiol. 33:329-342 (1997)). Every day for the first test, both the platform and the animal were situated in a new location with regard to the pool (with the pool being immobile). The experiment was performed as follows: the animal was positioned on the platform for 0.5 minutes then placed in the water. The time required to reach the platform (indicative of learning and intact reference memory) was measured (first test). After 0.5 minute on the platform, the animal was placed back in the water (in the previous position) for an additional second test and search for the hidden platform (retained in the previous position). The time required to reach the platform in the second trial was recorded, indicative of short-term (working) memory. All measurements were performed using the computerized video-assisted HVS water maze system (HVS Image Ltd. Hampton, UK). Animals were tested for four days to eliminate random memory defective animals. The best performers were injected i.c.v. at a rate of 0.21 μl/min. with the cholinotoxin ethylcholine aziridium (AF64A, 3 nmolI2 μl/side), control animals received an injection of saline (Gozes et al, Proc. Natl. Acad. Sci. USA 93:427-432 (1996)).
Animals were allowed to recover for one week, followed by daily exposure to three micrograms of D-SAL+three micrograms of D-NAP, in 20 microliter saline, applied orally on the tongue. After a week of oral peptide application, the animals were subjected to two daily tests in the water maze (as above). During the test-period, animals were also given an oral administration of peptide or vehicle (carrier) an hour before the daily test.
FIG. 14C illustrates the effect of oral administration of D-SALLRSIPA alone on learning and memory in rats treated with the cholinotoxin AF-64A. Rats were treated with the cholinotoxin AF-64A and D-SALLRSIPA as described in Gozes et al., J. Pharmacol. Exp. Therap. 293: 1091-1098 (2000), except that D-SALLRSIPA was delivered to AF64A-treated rats was as follows: 10 microgram D-SALLRSIPA (D-SAL) per rat (250-300 g) per day in 50 microliter saline under the tongue, using a micropipette. Peptides were applied once daily for three days, a week after the AF64A lesion. After a 2-day cessation, peptides were applied once daily for another 5 days and tested from day three on. […]

[3] = single peptide, 1 μM tetrodotoxin, neuronal cell counts

Substance | fetal demise rate (mice) | survival-promoting activity (preventing neuronal cell death associated with electrical blockade with TTX) [1, 3] | cholinergic function [2] | also measured
Asn-Ala-Pro-Val-Ser-Ile-Pro-Gln [D-NAP] | significantly reduced the fetal demise rate; also recorded: prevents fetal demises | very similar, with each exhibiting a complex dose response with two apparent maxima; also recorded: virtually identical in neuronal survival activity in vitro |  | 
Asn-Ala-Pro-Val-Ser-Ile-Pro-Gln [L-NAP, reference compound] |  | very similar, with each exhibiting a complex dose response with two apparent maxima; also recorded: virtually identical in neuronal survival activity in vitro | significantly increased cholinergic function to control levels | 
D-NA{L-P}VSIPQ: NAPVSIPQ with all amino acids in the D-form, except the third proline residue in the L-form |  |  |  | survival-promoting activity (preventing neuronal cell death associated with electrical blockade with TTX) [1]: retained survival-promoting activity and was effective in cell culture in preventing neuronal cell death
SALLRSIPA [L-SAL] |  |  | less effective | 
SALLRSIPA [reference compound] |  | identical in both potency and efficacy; also recorded: virtually identical in neuronal survival activity in vitro |  | 
Ser-Ala-Leu-Leu-Arg-Ser-Ile-Pro-Ala [D-SAL] ([dS][dA][dL][dL][dR][dS][dI][dP][dA]) | significantly reduced the fetal demise rate; also recorded: prevents fetal demises | identical in both potency and efficacy; also recorded: virtually identical in neuronal survival activity in vitro |  | learning and memory, overall conclusion (AF64A-treated rats; D-SALLRSIPA alone, oral, AF64A-treated rats): effective on its own; Morris water maze, summation of the two daily tests, vs AF64A (AF64A-treated rats; Day 1): P<0.04 D-SALLRSIPA-AF64A vs. AF64A; Morris water maze, summation of the two daily tests (AF64A-treated rats; Day 2): not significantly different from either AF64A animals or control; Morris water maze, summation of the two daily tests (AF64A-treated rats; Day 3): No difference; Morris water maze, summation of the two daily tests (AF64A-treated rats; Day 4): No difference; Morris water maze, summation of the two daily tests, vs AF64A (AF64A-treated rats; Day 5, t-test): P<0.04 D-SALLRSIPA-AF64A vs. AF64A; fetal death (mice; oral by gavage 30 minutes prior to alcohol, 40 μg, assessed on E18): prevent fetal death
